From patent US11779590B2, “AMP-activated protein kinase activating compounds and uses thereof” (Skylark Bioscience LLC, priority 2020, dated 2023)

Assays:
[1] = test system: HEK293 cells; assay: HEK293 cytotoxicity assay (CC50, CellTiterGlo); type: cell-based, human
Text: Some exemplary assays and examples for assessing therapeutic efficacy, e.g., anticancer effects, of exemplary compounds of the invention are described herein or well known in the art. HEK293 is a human kidney cell line, and efficacy on HEK293 is considered to be predictive of usefulness for therapeutic treatment.
HEK293 cells were obtained from American Type Culture Collection (ATCC) (Rockville Maryland). Cells were maintained in Dulbecco's modified Eagle's medium (DMEM) (Invitrogen, Carlsbad, CA) with 10% fetal bovine serum (FBS), 10 mM HEPES and 1 mM sodium pyruvate. Cells were grown at 37° C. in a humidified incubator with a gas phase of 5% C02. Cells were grown for 24 hours in a Tripleflask (NUNC) to ˜95% confluence and then resuspended for dispensing at 125,000 cells/mL of DMEM, 10% FBS, 10 mM Hepes and 1 mM sodium pyruvate.
HEK293 cells were seeded in 96 well microtiter plates at 10000 cells/well. After 24 hours of incubation an equal volume of fresh media containing test compounds at given concentrations was added. Plates were then incubated and cells were allowed to proliferate for 48 hours at 37° C., 95% humidity, and 5% C02. […] A solution of Promega CellTiterGlo (100 microliters) was added by Thermo Combi and the plates were allowed to sit for 10 minutes before reading on a Perkin-Elmer EnVision with US LUM settings for 0.1 sec per well. […]

[2] = dosed orally; cited from earlier work

Structure (SMILES): COP(=O)(OC)OC[C@H]1O[C@@H](n2cnc(C(N)=O)c2N)[C@H](O)[C@@H]1O [SB00024]
- activity on HEK293 cells (CC50 assay) ([1]; at 500 uM): inactive

Structure (SMILES): NC(=O)c1ncn([C@@H]2O[C@H](CO)[C@@H](O)[C@H]2O)c1N [AICAR, 5-amino-1-D-ribofuranosyl-1H-imidazole-4-carboxamide]
- bioavailability [2]: very low

Structure (SMILES): NC(=O)c1ncn([C@@H]2O[C@H](COP(=O)(O)Oc3ccc([N+](=O)[O-])cc3)[C@@H](O)[C@H]2O)c1N [SB00039]
- potency relative to AICAR on HEK293 cells ([1]; ratio of potency (CC50) versus AICAR): roughly 100 times
